Results: patent US20030096850A1, “Treating infections by administration of oxazolidinones” (priority 2001, published 2003)

Legend:
[1] = Human who has acne treated with an Oxazolidinone ointment; type: in vivo; settings: person, ointment 30 mg/ml twice daily on skin
[2] = Treatment of diabetic foot with cream or ointment; type: in vivo, human; settings: cream or ointment 10-30 mg/ml three times daily for 10-14 days
Experimental: A 70 kilo […] with a history of diabetes and infected foot ulcerations, also known as diabetic foot, is treated with a cream or ointment preparation of 10-30 mg/ml (S)-N-[[3-[3-fluoro-4-(4-morpholinyl)phenyl]-2-oxo-5-oxazolidinyl]methyl]acetamide. The cream or ointment is liberally spread over the exposed surface of the ulcerations and adjacent whole skin three times daily for 10-14 days.

[3] = Human who has an ear infection (otitis media) treated with Oxazolidinone solution; type: in vivo; settings: child, ten drops of 10 mg/ml solution into the ear twice daily, before 10 days
Experimental: Ten drops of a solution containing 10 mg/ml of (S)-N-[[3-[3-fluoro-4-(4-morpholinyl)phenyl]-2-oxo-5-oxazolidinyl]methyl]acetamide is dropped into the ear twice daily for ten days with an eye dropper and is immediately followed by closing the outer ear canal with cotton.

Staphylococcal aureus = assay: Human treated with Oxazolidinone cream or ointment prior to surgery; type: in vivo; settings: cream or ointment 10-30 mg/ml, evening prior to and morning of surgery
Experimental: (§1) A 75 kilo […] is being prepared for surgery; the types of surgeries include open-heart surgery, joint replacement, back surgery, or any type of invasive surgery. A cream or ointment preparation of 10-30 mg/ml (S)-N-[[3-[3-fluoro-4-(4-morpholinyl)phenyl]-2-oxo-5-oxazolidinyl]methyl]acetamide is liberally spread by a nurse wearing gloves upon the intended site of the incision and an area of 8 inches around the margins of the intended incision site the evening prior to surgery and the first thing in the morning of the surgery. The area of application is kept free of clothing until the cream or ointment is absorbed.

[4] = test system: Staphylococcal epidermidis; assay: as above; type: in vivo; settings: cream or ointment 10-30 mg/ml, evening prior to and morning of surgery
Experimental: as §1

In the case of `CC(=O)NC[C@H]1CN(c2ccc(N3CCN(C(=O)CO)CC3)c(F)c2)C(=O)O1` [Example 1, (S)-N-[[3-[3-Fluoro-4-[4-(hydroxyacetyl)-1-piperazinyl]-phenyl]-2-oxo-5-oxazolidinyl]methyl]acetamide], the “reddened and swollen pustules after administration” value [1] is reported as “greatly reduced”.

In the case of `CC(=O)NC[C@H]1CN(c2ccc(N3CCOCC3)c(F)c2)C(=O)O1` [Example 2, (S)-N-[[3-[3-Fluoro-4-(4-morpholinyl)phenyl]-2-oxo-5-oxazolidinyl]methyl]acetamide], the “tissue destruction and repair in the ulcerated area” value [2] is reported as “tissue destruction in the ulcerated area has visibly ceased and tissue repair has begun”, the “fever and ear pain” value [3] is reported as “the fever is down and the pain is gone” and the “skin commensal pathogen Staphylococcal aureus throughout the full thickness of the skin at the incision site” value (Staphylococcal aureus) is reported as “killed or are prevented from growing”. The “skin commensal pathogen Staphylococcal epidermidis throughout the full thickness of the skin at the incision site” value [4] was “killed or are prevented from growing”.
